Assay results: US11999676B2, “Vesicular monoamine transporter-2 ligands and their use in the treatment of psychostimulant abuse” (priority 2016, dated 2024)
Where two headings read alike, the source gives them in different places.

What was measured:
[1] = Microsomal stability assay, rat liver microsomes; conditions: female, Sprague-Dawley, rat, liver microsomes; for CLint scaled at 0.08 µM: pH 7.4, Microsomal stability assays: Clearance; for half-life at 0.08 µM: pH 7.4, Microsomal stability assays: Half-life
Method: Each plate holds triplicate samples of two controls (0.4 mM) and up to 14 compounds (0.08 mM) in rat and human liver microsomes. Aliquots of each well of the plate (175 μl of each well) were transferred from the master plate into 5 assay plates. For 0-hr time point, pre-cooled (4° C.) internal standard (437.5 μL, 2 μM caffeine in methanol) was added to the first plate before the reaction starts. NADPH regenerating system solution A (6.05 ml, Fisher Scientific, #NC9255727) was combined with NADPH regenerating system solution B (1.21 ml, Fisher Scientific, #NC9016235) in potassium phosphate buffer (15.8 ml, 0.1 M, pH 7.4, 37° C.). The resulting NADPH solution (43.8 μl) was added to each well of all the 96-well assay plates and mixed with pipette briefly making the final protein and compound concentrations respectively: 0.5 mg/ml, 0.08 μM (0.4 μM for controls). Plates were sealed, and all plates except the 0-hr plate were incubated at 37° C., shaken at a speed of 60 rpm. A single assay plate was tested at each time point: 0.5 hr, 1 hr, 2 hr, and 4 hr. At each time point, 437.5 μL of pre-cooled internal standard was added each well of the plate to quench the reaction. […] 120 μl supernatant was transferred to a 96-well plate, centrifuged again and analyzed by UPLC-MS (Waters Inc., Milford, MA). The compounds and internal standard were detected by selected ion recording (SIR).
The amount of material was measured as a ratio of peak area to the internal standard and graphed. Using the slope from the initial linear portion of this curve, the degradation rate constant is calculated using equation [1].

VMAT2 = VMAT2 (Rattus norvegicus (Rat), UniProt Q01827); experiment: [3H]Dopamine ([3H]DA) uptake assay, vesicular preparation; format: biochemical
[2] = [3H]DA uptake (Ki) VMAT2, rat striatal synaptic vesicles
[3] = [3H]DA uptake, rat, read-out: VMAT2 (rat) Inhibition: Mean Ki ± Standard Deviation

CC(Cc1ccccc1)NCCCc1ccc(Br)cc1 (stereo not drawn) [Compound 219]
CLint scaled at 0.08 µM [1]: > 400 mL/min/kg | half-life at 0.08 µM [1]: < 6 min

COc1ccc(C[C@@H](C)NCCCc2ccccc2)cc1 [Compound 27]
Ki (VMAT2; [2]): 45 ± 4 nM

CC(Cc1ccc(F)cc1)NCCCn1ccnc1 (stereo not drawn) [Compound 135]
CLint scaled at 0.08 µM [1]: < 7 mL/min/kg | half-life at 0.08 µM [1]: > 240 min

CC(Cc1ccc(F)cc1)NCCCc1ccnc2ccccc12 (stereo not drawn) [Compound 163]
CLint scaled at 0.08 µM [1]: > 400 mL/min/kg | half-life at 0.08 µM [1]: < 6 min

C[C@H](Cc1ccc(Br)cc1)NCCCc1ccccc1 [Compound 12]
Ki (VMAT2; [2]): 6 ± 1 nM

CC(C)Nc1ccc(CCCNC(C)Cc2ccc(F)cc2)cc1 (stereo not drawn) [Compound 65]
Ki (VMAT2; [3]): 112 ± 16.8 nM

CC(Cc1ccc(F)cc1)NCCCc1ccccc1 (stereo not drawn) [Compound 127]
CLint scaled at 0.08 µM [1]: > 400 mL/min/kg | half-life at 0.08 µM [1]: < 6 min

CC(Cc1ccc(N)cc1)NCCCc1ccncc1 (stereo not drawn) [Compound 103]
Ki (VMAT2; [3]): 378 ± 30 nM

CS(=O)(=O)c1ccc(CCCNC(CF)Cc2ccc(F)cc2)cc1 (stereo not drawn) [Compound 137]
Ki (VMAT2; [3]): 182 ± 56.7 nM

CC(C)C(Cc1ccc(F)cc1)NCCCc1ccccc1 (stereo not drawn) [Compound 136]
Ki (VMAT2; [3]): 386 ± 66.4 nM

C[C@@H](Cc1ccc(Br)cc1)NCCCc1ccccc1 [Compound 13]
Ki (VMAT2; [2]): 32 ± 4 nM

CC(Cc1ccc(F)cc1)NCCCc1ccc(Cl)cc1 (stereo not drawn) [Compound 189]
CLint scaled at 0.08 µM [1]: > 400 mL/min/kg | half-life at 0.08 µM [1]: < 6 min

CC(Cc1ccc(F)cc1)NCCCc1ccc([S+](C)[O-])cc1 (stereo not drawn) [Compound 144]
Ki (VMAT2; [3]): 178 ± 78.9 nM

CC(Cc1ccc(F)cc1)NCCCc1ccc(F)cc1 (stereo not drawn) [Compound 191]
CLint scaled at 0.08 µM [1]: 195 mL/min/kg | half-life at 0.08 µM [1]: 12 min

COc1ccc(C[C@H](C)NCCCc2ccccc2)cc1 [Compound 28]
Ki (VMAT2; [2]): 20 ± 1 nM

CC(Cc1ccccc1)NCCCc1ccc(O)cc1 (stereo not drawn) [Compound 224]
CLint scaled at 0.08 µM [1]: > 400 mL/min/kg | half-life at 0.08 µM [1]: < 6 min

CC(Cc1ccccc1)NCCCc1ccncc1 (stereo not drawn) [Compound 205]
CLint scaled at 0.08 µM [1]: 90.6 mL/min/kg | half-life at 0.08 µM [1]: 30 min

CC(Cc1ccccc1)N(CCCc1ccc(O)cc1)CCCc1ccc(O)cc1 (stereo not drawn) [Compound 225]
Ki (VMAT2; [3]): 4.99 ± 1.19 nM

CC(Cc1ccc(F)cc1)NCCCc1ccc(NC2CCC2)cc1 (stereo not drawn) [Compound 93]
Ki (VMAT2; [3]): 129 ± 7.41 nM

CC(Cc1ccc([N+](=O)[O-])cc1)NCCCc1ccncc1 (stereo not drawn) [Compound 114]
CLint scaled at 0.08 µM [1]: 95.9 mL/min/kg | half-life at 0.08 µM [1]: 30 min

CC(C)C(Cc1ccc(F)cc1)NCCCc1ccc(Br)cc1 (stereo not drawn) [Compound 141]
CLint scaled at 0.08 µM [1]: > 450 mL/min/kg | half-life at 0.08 µM [1]: < 6 min

CC(Cc1ccncc1)NCCCc1ccc(Br)cc1 (stereo not drawn) [Compound 169]
CLint scaled at 0.08 µM [1]: 200 mL/min/kg | half-life at 0.08 µM [1]: 12 min

COc1ccc(CCCNC(C)Cc2ccncc2)cc1 (stereo not drawn) [Compound 173]
CLint scaled at 0.08 µM [1]: 126 mL/min/kg | half-life at 0.08 µM [1]: 24 min

CC(Cc1ccc(N)cc1)NCCCc1ccccc1 (stereo not drawn) [Compound 106]
CLint scaled at 0.08 µM [1]: 17.9 mL/min/kg | half-life at 0.08 µM [1]: 156 min

CC(Cc1ccc(F)cc1)NCCCc1ccc(N(C)C)cc1 (stereo not drawn) [Compound 157]
CLint scaled at 0.08 µM [1]: > 400 mL/min/kg | half-life at 0.08 µM [1]: < 6 min

CC(Cc1ccccc1)NCCCc1ccc(-c2cncnc2)cc1 (stereo not drawn) [Compound 203]
CLint scaled at 0.08 µM [1]: 248 mL/min/kg | half-life at 0.08 µM [1]: 12 min

CC(Cc1ccc(NC=O)cc1)NCCCc1ccccc1 (stereo not drawn) [Compound 78]
CLint scaled at 0.08 µM [1]: 167 mL/min/kg | half-life at 0.08 µM [1]: 18 min

CC(Cc1ccc(F)cc1)NCCCc1ccc(NC=O)cc1 (stereo not drawn) [Compound 71]
CLint scaled at 0.08 µM [1]: 97.2 mL/min/kg | half-life at 0.08 µM [1]: 30 min

CC(Cc1ccncc1)NCCCc1ccc(F)cc1 (stereo not drawn) [Compound 187]
CLint scaled at 0.08 µM [1]: 150 mL/min/kg | half-life at 0.08 µM [1]: 18 min

CC(Cc1ccc(F)cc1)NCCCc1ccc(S(C)(=O)=O)cc1 (stereo not drawn) [Compound 139]
CLint scaled at 0.08 µM [1]: < 7 mL/min/kg | half-life at 0.08 µM [1]: > 240 min

CC(Cc1ccccc1)NCCCc1ccc(-c2cccs2)cc1 (stereo not drawn) [Compound 206]
Ki (VMAT2; [3]): 125 ± 25.4 nM

CC(Cc1ccc([N+](=O)[O-])cc1)NCCCc1ccc(Br)cc1 (stereo not drawn) [Compound 122]
CLint scaled at 0.08 µM [1]: > 400 mL/min/kg | half-life at 0.08 µM [1]: < 6 min

CC(Cc1ccc(F)cc1)NCCCc1ccc(-c2ccnn2C)cc1 (stereo not drawn) [Compound 167]
CLint scaled at 0.08 µM [1]: 111 mL/min/kg | half-life at 0.08 µM [1]: 24 min
